Results reported in PubChem BioAssay AID220 (DTP/NCI, 2004).
Values joined by “and” are separate entries in the source; they are usually repeats but may differ in a detail not shown here. Equal values may be shown once. Results filed as inconclusive are left out.

System: CD8F1 mice, subcutaneous mammary adenocarcinoma, T/C%
Assay: NCI In Vivo Anticancer Drug Screen. Data for tumor model Mammary Adenocarcinoma CD8F1 (subcutaneous) in CD8F1
Settings: higher = larger tumour
Procedure, shortened: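 Ratio of treated to vehicle-control outcome, based on either survival or tumor size, in mice bearing transplantable tumors given the test compound.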

CN(C)c1nc(N(C)C)nc(N(C)C)n1
T/C (endpoint: mean tumor weight, dose: 75.0 mg/kg/injection, schedule: Q01DX009 (ip), vehicle: saline): 64 % of control
T/C (endpoint: mean tumor weight, dose: 150.0 mg/kg/injection, schedule: Q01DX009 (ip), vehicle: saline): 94 % of control
T/C (endpoint: mean tumor weight, dose: 250.0 mg/kg/injection, schedule: Q07DX006 (ip), vehicle: saline): 108 % of control
T/C (endpoint: mean tumor weight, dose: 300.0 mg/kg/injection, schedule: Q01DX009 (ip), vehicle: saline): 8 % of control
T/C (endpoint: mean tumor weight, dose: 300.0 mg/kg/injection, schedule: Q07DX006 (ip), vehicle: saline): 113 % of control
T/C (endpoint: median tumor weight (est.), dose: 12.5 mg/kg/injection, schedule: Q07DX006 (ip), vehicle: saline with Tween-80): 100 % of control
T/C (endpoint: median tumor weight (est.), dose: 16.0 mg/kg/injection, schedule: Q07DX005 (ip), vehicle: saline with Tween-80): 171 % of control
T/C (endpoint: median tumor weight (est.), dose: 25.0 mg/kg/injection, schedule: Q07DX005 (ip), vehicle: saline with Tween-80): 80 % of control
T/C (endpoint: median tumor weight (est.), dose: 25.0 mg/kg/injection, schedule: Q07DX006 (ip), vehicle: saline with Tween-80): 54 % of control
T/C (endpoint: median tumor weight (est.), dose: 32.0 mg/kg/injection, schedule: Q07DX005 (ip), vehicle: acid diluted with saline): 31 % of control
T/C (endpoint: median tumor weight (est.), dose: 32.0 mg/kg/injection, schedule: Q07DX005 (ip), vehicle: saline with Tween-80): 179 % of control
T/C (endpoint: median tumor weight (est.), dose: 50.0 mg/kg/injection, schedule: Q07DX005 (ip), vehicle: saline with Tween-80): 73 % of control
T/C (endpoint: median tumor weight (est.), dose: 50.0 mg/kg/injection, schedule: Q07DX006 (ip), vehicle: saline with Tween-80): 50 % of control
T/C (endpoint: median tumor weight (est.), dose: 64.0 mg/kg/injection, schedule: Q07DX005 (ip), vehicle: acid diluted with saline): 39 % of control
T/C (endpoint: median tumor weight (est.), dose: 64.0 mg/kg/injection, schedule: Q07DX005 (ip), vehicle: saline with Tween-80): 212 % of control and 76 % of control
T/C (endpoint: median tumor weight (est.), dose: 100.0 mg/kg/injection, schedule: Q07DX005 (ip), vehicle: saline with Tween-80): 62 % of control
T/C (endpoint: median tumor weight (est.), dose: 100.0 mg/kg/injection, schedule: Q07DX006 (ip), vehicle: saline with Tween-80): 78 % of control
T/C (endpoint: median tumor weight (est.), dose: 128.0 mg/kg/injection, schedule: Q07DX005 (ip), vehicle: acid diluted with saline): 53 % of control
T/C (endpoint: median tumor weight (est.), dose: 200.0 mg/kg/injection, schedule: Q07DX005 (ip), vehicle: saline with Tween-80): 44 % of control
T/C (endpoint: median tumor weight (est.), dose: 200.0 mg/kg/injection, schedule: Q07DX006 (ip), vehicle: saline with Tween-80): 5 % of control
T/C (endpoint: median tumor weight (est.), dose: 256.0 mg/kg/injection, schedule: Q07DX005 (ip), vehicle: acid diluted with saline): 29 % of control
T/C (endpoint: median tumor weight change, dose: 100.0 mg/kg/injection, schedule: Q01DX001 (ip), vehicle: acid diluted with saline): 103 % of control and 104 % of control
T/C (endpoint: median tumor weight change, dose: 200.0 mg/kg/injection, schedule: Q01DX001 (ip), vehicle: acid diluted with saline): 61 % of control
T/C (endpoint: median tumor weight change, dose: 800.0 mg/kg/injection, schedule: Q01DX001 (ip), vehicle: acid diluted with saline): 37 % of control and 51 % of control

Cc1c2c(ccc3ccccc32)c[n+]2ccccc12
T/C (endpoint: median tumor weight (est.), dose: 6.25 mg/kg/injection, schedule: Q07DX005 (ip), vehicle: saline): 73 % of control
T/C (endpoint: median tumor weight (est.), dose: 12.5 mg/kg/injection, schedule: Q07DX005 (ip), vehicle: saline): 71 % of control

Cc1cn(C2CC(F)C(CO)O2)c(=O)[nH]c1=O (stereo not given)
T/C (endpoint: median tumor weight change, dose: 250.0 mg/kg/injection, schedule: Q01DX001 (ip), vehicle: suspension in saline): 71 % of control
T/C (endpoint: median tumor weight change, dose: 500.0 mg/kg/injection, schedule: Q01DX001 (ip), vehicle: suspension in saline): 69 % of control
T/C (endpoint: median tumor weight change, dose: 1000.0 mg/kg/injection, schedule: Q01DX001 (ip), vehicle: suspension in saline): 79 % of control

F[B-](F)(F)F
T/C (endpoint: median tumor weight (est.), dose: 12.5 mg/kg/injection, schedule: Q07DX005 (ip), vehicle: gum acacia): 109 % of control
T/C (endpoint: median tumor weight (est.), dose: 25.0 mg/kg/injection, schedule: Q07DX005 (ip), vehicle: gum acacia): 88 % of control
T/C (endpoint: median tumor weight (est.), dose: 50.0 mg/kg/injection, schedule: Q07DX005 (ip), vehicle: gum acacia): 83 % of control
T/C (endpoint: median tumor weight (est.), dose: 100.0 mg/kg/injection, schedule: Q07DX005 (ip), vehicle: gum acacia): 96 % of control
T/C (endpoint: median tumor weight (est.), dose: 200.0 mg/kg/injection, schedule: Q07DX005 (ip), vehicle: gum acacia): 74 % of control
T/C (endpoint: median tumor weight (est.), dose: 400.0 mg/kg/injection, schedule: Q07DX005 (ip), vehicle: gum acacia): 90 % of control
